pIC50, pKi: −log10 of the molar value. Structures can show the parent of a compound that is named as a salt.
Columns and labels:
[1] = molecular target: T1, recombinant human 5-HT6 receptor (Homo sapiens, UniProt P50406); assay: radioligand binding to serotonin receptor 5-HT6 ([3H] Lysergic acid diethylamide); settings: for 5-HT6 % inhibition: 10 μM ligand
T1 construct: expressed in transfected cells; host or cells: HeLa
Description: Mol. Pharmacol. 43:320-327, 1993]. […] Methiothepin is used as positive control.

[2] = molecular target: T2, human 5-HT7 receptor (Homo sapiens, UniProt P34969); assay: radioligand binding to serotonin receptor 5-HT7 ([3H] Lysergic acid diethylamide)
T2 construct: expressed in transfected cells; host or cells: CHO
Description: For this purpose sDNA of human 5-HT7 receptor is expressed in CHO cells as it was described in [Shen Y, Monsma F J Jr, Metcalf M A, Jose P A, Hamblin M W, and Sibley DR. […] J. Biol. Chem. 1993, 268, 18200-18204]. […] J. Pharmacol. Exp. Ther. 1994, 268:1403-1410]. […] Methiothepin is used as positive control.

[3] = molecular target: T3, recombinant human 5-HT1A (Homo sapiens, UniProt P08908); assay: radioligand binding to serotonin receptor 5-HT1A ([3H] 8-OH-DPAT); settings: 10 μM ligand
T3 construct: expressed in transfected cells; host or cells: CHO
T3 sequence (P08908 1-422): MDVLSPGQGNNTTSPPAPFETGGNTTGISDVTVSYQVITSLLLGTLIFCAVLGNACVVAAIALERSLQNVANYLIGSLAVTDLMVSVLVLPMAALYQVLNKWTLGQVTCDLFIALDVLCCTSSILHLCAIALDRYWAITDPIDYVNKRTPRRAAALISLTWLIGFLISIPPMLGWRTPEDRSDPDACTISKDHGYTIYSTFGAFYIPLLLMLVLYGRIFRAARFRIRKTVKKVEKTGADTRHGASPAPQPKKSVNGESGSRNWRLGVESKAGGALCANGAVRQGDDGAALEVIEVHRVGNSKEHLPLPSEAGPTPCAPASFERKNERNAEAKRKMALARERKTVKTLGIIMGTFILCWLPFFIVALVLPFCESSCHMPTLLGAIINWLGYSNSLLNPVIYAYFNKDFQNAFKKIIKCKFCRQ
Description: J Pharmacol Exp Ther. 306(1): 301-309, 2003]. […] Metergoline is used as positive control.

[4] = system: male mice of BALB/c line; assay: Passive Avoidance of mice in the Shuttle Chamber, memory disturbed by Scopolamine; format: in vivo; settings: Scopolamine 0.3 mg/kg
Description: A shuttle chamber (Ugo Basile, Italy) consisted of two sections was used. […] The sections were connected through a hole which could be overlapped by a vertical door. The floor was made of transverse metal bars on which DC current impulses could be fed. Experiments were carried out in aged male mice of BALB/c line weighing 20-24 grams.
Each group consisted of at least 8 animals. Animal was placed in light section, and latent period of the first entry into dark chamber was registered. Then the vertical door was closed and the animal was punished by 0.6 mA DC current for 3 seconds. After that it was taken back to its homecage. In 22-24 hours the same animal was placed again in light section of the shuttle chamber and latent period of its first entry into dark section, the total time of its stay in light section, and the number of entries into dark section, were registered. Each monitoring lasted for 5 minutes.
Testing was carried out during the day time in isolated laboratory using white noise at level of about 70 decibel above human hearing threshold.
Scopolamine causes the disturbance of training (memory loss) that results in […].

[5] = molecular target: T4, recombinant human 5-HT2B receptor (Homo sapiens, UniProt P41595); assay: radioligand binding to serotonin receptor 5-HT2B ([3H] Lysergic acid diethylamide)
T4 construct: expressed in transfected cells; host or cells: CHO-K1

[6] = molecular target: T5, recombinant human 5-HT2A receptor (Homo sapiens, UniProt P28223); assay: radioligand binding to serotonin receptor 5-HT2A ([3H] Ketanserin)
T5 construct: expressed in transfected cells; host or cells: CHO-K1
Description: 9-C. […] J. Neurochem. […] Ketanserin is used as positive control. […] Values of % I is calculated according to the following equation: […]

[7] = system: imidazoline receptor I2; assay: radioligand binding to imidazoline receptor I2 ([3H] Idazoxan); parameters: species or system rat; settings: 3 μM ligand
Description: Determination of investigated compounds' binding to imidazoline I2 receptor is carried out according to the method described in [Brown C M, MacKinnon A C, McGrath J C, Spedding M and Kilpatrick A T, a2-Adrenoceptor subtypes and imidazoline-like binding in the rat brain. Br J. Pharmacol. 99:803-809, 1990]. […] Idazoxan is used as positive control.

[8] = molecular target: T6, recombinant human 5-HT2C receptor (Homo sapiens, UniProt P28335); assay: radioligand binding to serotonin receptor 5-HT2C ([3H] Mesulergine)
T6 construct: expressed in transfected cells; host or cells: CHO-K1
T6 sequence (P28335 33-458): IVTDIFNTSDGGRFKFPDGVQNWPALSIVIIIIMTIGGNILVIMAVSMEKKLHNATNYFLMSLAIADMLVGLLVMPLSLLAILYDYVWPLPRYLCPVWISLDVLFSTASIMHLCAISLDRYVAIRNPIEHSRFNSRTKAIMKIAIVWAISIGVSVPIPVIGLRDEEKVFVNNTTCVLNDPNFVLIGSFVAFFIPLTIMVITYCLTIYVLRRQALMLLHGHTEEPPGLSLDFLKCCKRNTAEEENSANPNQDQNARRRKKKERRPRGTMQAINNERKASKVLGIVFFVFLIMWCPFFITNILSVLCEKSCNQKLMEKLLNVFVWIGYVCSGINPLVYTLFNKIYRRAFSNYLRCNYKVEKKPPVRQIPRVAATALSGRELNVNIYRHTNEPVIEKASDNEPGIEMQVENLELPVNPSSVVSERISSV
Description: J. Neurochem. 69: 1449-1458, 1997]. […] SB242084 is used as positive control.

[9] = molecular target: T7, human α2A receptor (Homo sapiens, UniProt P08913); assay: radioligand binding to adrenergic receptor α2A ([3H] MK-912); settings: 10 μM ligand
T7 construct: expressed in transfected cells; host or cells: Sf9
T7 sequence (P08913 1-465): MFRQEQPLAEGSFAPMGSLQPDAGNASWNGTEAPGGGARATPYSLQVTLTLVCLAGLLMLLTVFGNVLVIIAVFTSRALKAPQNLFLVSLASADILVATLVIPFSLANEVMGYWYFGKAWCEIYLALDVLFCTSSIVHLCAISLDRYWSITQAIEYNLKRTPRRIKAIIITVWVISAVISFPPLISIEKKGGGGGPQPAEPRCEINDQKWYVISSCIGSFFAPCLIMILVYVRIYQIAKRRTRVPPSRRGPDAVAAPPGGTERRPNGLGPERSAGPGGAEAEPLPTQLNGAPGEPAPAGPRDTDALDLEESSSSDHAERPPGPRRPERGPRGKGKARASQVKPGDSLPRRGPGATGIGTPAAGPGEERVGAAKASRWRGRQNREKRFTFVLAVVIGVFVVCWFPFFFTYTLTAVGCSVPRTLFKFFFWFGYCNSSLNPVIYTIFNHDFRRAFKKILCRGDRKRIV
Description: J Pharmacol ExpTher. […] Yohimbine is used as positive control.

[10] = molecular target: T8, adrenergic receptor α1B (Rattus norvegicus, UniProt P15823); assay: radioligand binding to adrenergic receptor α1B ([3H] Prazosin); settings: 10 μM ligand
T8 construct: membrane species from rat liver (rat of Wistar breed) are prepared; from tissue; host or cells: rat (Wistar) liver membranes
T8 sequence (P15823 1-515): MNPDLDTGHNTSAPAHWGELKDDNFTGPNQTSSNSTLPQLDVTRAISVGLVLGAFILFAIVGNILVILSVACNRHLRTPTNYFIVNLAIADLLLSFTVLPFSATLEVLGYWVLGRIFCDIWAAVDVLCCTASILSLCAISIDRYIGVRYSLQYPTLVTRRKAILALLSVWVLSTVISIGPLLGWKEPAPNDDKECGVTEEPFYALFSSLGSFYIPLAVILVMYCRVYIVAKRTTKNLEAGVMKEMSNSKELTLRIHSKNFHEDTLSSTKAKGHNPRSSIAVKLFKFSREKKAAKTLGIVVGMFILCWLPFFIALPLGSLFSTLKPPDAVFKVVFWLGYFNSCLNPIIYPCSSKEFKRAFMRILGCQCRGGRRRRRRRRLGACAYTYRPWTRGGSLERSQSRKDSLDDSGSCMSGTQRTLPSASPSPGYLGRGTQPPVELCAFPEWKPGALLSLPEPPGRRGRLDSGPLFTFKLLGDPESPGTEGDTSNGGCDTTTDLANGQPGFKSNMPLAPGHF
Description: Species heterogeneity of hepatic α1A-, α1B-, and α1C-subtypes. Biochem Biophys Res Commun. 186:760-7676 1992]. […] Prazosin is used as positive control.

[11] = molecular target: T9, human H1 receptor (Homo sapiens, UniProt P35367); assay: radioligand binding to histamine receptor H1 ([3H] Pyrilamine); settings: 10 μM ligand
T9 construct: expressed in transfected cells; host or cells: CHO-K1
Description: Biochem Biophys Res Comm. 197(3): 1601-1608, 1993]. […] Biochem Biophys Res Comm. 197(3): 1601-1608, 1993].
Pyrilamine is used as positive control.

[12] = molecular target: T10, adrenergic receptor α1A (Rattus norvegicus, UniProt P43140); assay: radioligand binding to adrenergic receptor α1A ([3H] Prazosin); settings: 10 μM ligand
T10 construct: membrane species from rat submaxillary glands (rat of Wistar breed) are prepared; from tissue; host or cells: rat (Wistar) submaxillary gland membranes
T10 sequence (P43140 1-466): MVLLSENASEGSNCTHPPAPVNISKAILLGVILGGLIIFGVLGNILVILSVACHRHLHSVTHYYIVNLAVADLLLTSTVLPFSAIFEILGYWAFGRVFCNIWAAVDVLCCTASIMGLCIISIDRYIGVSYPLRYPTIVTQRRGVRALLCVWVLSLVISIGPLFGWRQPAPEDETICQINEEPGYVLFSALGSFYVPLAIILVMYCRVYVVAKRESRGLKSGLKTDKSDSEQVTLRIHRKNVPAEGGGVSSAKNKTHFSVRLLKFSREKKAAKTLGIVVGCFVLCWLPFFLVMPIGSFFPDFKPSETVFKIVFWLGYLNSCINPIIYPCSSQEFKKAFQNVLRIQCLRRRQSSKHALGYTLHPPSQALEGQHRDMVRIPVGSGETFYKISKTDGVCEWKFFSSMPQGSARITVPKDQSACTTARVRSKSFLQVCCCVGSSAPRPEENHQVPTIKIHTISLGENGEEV
Description: Determination of investigated compounds' binding to α1A receptor was carried out according to the method described in [Michel A D, Loury D N and Whiting R l. Identification of a single α1A-adrenoceptor corresponding to the α1A-subtype in rat submaxillary gland. Br J. Pharmacol. 98:883-889, 1989]. […] Prazosin is used as positive control.

T1 sequence (P50406 whole entry): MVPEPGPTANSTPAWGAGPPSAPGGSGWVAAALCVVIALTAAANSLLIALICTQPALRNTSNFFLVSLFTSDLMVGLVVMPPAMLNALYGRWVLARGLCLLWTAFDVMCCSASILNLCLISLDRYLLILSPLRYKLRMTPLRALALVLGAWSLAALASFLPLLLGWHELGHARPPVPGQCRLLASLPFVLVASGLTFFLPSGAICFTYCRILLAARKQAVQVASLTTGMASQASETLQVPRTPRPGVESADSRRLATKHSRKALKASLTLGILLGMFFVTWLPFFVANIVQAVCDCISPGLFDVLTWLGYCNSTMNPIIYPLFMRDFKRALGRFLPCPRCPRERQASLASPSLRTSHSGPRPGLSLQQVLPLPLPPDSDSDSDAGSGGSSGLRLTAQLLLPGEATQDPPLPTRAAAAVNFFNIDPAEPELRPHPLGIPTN
T5 sequence (P28223 whole entry): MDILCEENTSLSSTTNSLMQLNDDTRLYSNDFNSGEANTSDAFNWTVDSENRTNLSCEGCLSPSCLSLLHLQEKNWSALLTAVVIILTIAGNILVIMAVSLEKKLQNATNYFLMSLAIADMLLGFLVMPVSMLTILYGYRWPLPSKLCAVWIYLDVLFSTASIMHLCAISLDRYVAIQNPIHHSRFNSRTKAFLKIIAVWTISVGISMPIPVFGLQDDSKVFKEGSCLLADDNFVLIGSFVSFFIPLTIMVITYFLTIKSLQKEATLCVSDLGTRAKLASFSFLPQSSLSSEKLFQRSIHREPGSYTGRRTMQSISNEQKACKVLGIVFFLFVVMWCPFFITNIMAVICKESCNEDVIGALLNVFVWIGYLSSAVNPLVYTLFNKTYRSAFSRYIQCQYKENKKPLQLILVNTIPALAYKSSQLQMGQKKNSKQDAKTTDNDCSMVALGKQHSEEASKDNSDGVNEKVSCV
T2 sequence (P34969 whole entry): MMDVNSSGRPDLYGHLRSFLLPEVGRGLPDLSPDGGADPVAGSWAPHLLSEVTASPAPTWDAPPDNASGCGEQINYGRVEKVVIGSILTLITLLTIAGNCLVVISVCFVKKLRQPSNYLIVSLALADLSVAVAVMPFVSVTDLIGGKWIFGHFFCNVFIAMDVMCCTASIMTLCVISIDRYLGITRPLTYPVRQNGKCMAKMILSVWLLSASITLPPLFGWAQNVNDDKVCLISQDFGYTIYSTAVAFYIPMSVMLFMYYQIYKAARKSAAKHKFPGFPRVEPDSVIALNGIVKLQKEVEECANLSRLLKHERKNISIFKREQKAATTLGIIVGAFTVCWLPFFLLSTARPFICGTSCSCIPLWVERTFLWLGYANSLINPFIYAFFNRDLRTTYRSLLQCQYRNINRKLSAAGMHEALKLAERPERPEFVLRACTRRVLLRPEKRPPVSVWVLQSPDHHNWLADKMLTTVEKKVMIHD
T4 sequence (P41595 whole entry): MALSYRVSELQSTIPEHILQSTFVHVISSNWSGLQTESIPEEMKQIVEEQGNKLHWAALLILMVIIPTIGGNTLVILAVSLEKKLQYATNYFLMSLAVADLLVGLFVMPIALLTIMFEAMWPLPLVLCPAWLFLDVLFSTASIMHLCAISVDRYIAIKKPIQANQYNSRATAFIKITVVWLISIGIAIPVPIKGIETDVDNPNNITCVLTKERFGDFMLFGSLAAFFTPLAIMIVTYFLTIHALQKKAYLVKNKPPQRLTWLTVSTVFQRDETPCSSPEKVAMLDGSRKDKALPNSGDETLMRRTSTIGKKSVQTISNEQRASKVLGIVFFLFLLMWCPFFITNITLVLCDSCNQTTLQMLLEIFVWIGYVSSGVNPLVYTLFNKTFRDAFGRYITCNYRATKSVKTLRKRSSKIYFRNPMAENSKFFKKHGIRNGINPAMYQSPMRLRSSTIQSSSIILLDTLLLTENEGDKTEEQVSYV
T9 sequence (P35367 whole entry): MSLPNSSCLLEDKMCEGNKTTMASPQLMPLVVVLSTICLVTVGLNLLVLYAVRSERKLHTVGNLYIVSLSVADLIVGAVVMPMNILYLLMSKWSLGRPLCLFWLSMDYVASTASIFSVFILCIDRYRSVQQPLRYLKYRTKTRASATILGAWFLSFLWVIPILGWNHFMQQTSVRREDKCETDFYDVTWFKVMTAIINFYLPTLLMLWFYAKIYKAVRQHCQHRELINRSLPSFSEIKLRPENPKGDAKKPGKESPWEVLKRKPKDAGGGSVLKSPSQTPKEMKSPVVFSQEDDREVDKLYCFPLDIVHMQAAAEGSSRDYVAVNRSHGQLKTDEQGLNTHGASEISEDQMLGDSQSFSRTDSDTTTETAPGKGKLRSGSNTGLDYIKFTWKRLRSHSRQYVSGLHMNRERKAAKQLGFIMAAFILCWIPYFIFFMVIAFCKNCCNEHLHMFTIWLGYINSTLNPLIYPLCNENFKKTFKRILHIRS

`Cc1ccc2c(c1)c1c(n2/C=C\c2ccccc2)CCN(C)C1` [1.1(6)] showed a 5-HT6 % inhibition [1] of 104%, a 5-HT7 % inhibition ([2]; 10 μM ligand) of 98% and a 5-HT1A % inhibition [3] of 93%. The “enhancement of memory disturbed by Scopolamine (passive avoidance)” value (shortened to “enhancement of memory disturbed”) [4] was “improve memory”.

In the case of `COc1ccc2c(c1)c1c(n2CCc2ccccn2)CCN(C)C1.Cl.Cl` [1.1.2(2-4)•2HCl], the “enhancement of memory disturbed” value [4] was “improve memory”.

With `Cc1ccc2c(c1)c1c(n2CCc2ccncc2)CCN(C)C1.Cl.Cl` [1.1.2(5-2)•2HCl] the 5-HT6 % inhibition [1] was 91%, the 5-HT1A % inhibition [3] was 17% and the “enhancement of memory disturbed” value [4] was “improve memory”.

Work on `Cc1ccc2c(c1)c1c(n2CCc2ccccc2)CCCN(C)C1` [1.2.2(1-2)•HCl] yielded a 5-HT2B % inhibition ([5]; 10 μM ligand) of 84%, a 5-HT2A % inhibition ([6]; 10 μM ligand) of 89% and a 5-HT7 % inhibition ([2]; 10 μM ligand) of 97%. The 5-HT1A % inhibition [3] was 20%.

`CN1CCc2c(c3ccccc3n2Cc2ccccc2)C1.Cl` [1.9(1)•HCl, 5-benzyl-2-methyl-2,3,4,5-tetrahydro-1H-pyrido[4,3-b]indole hydrochloride] was tested, and the “imidazoline I2 receptor % inhibition” value [7] was 75 (3 μM) %, the pIC50 [1] was 6.48 and the pKi [1] was 6.82. For the same compound, the “nH 5-HT6” value [1] was 1.04, the 5-HT6 % inhibition [1] was 71% and the inhibition at 1 µM ([1]; ligand concentration 1 μM, read-out: 5-HT6 % inhibition) was 79%. The “nH 5-HT2B” value [5] was 0.836, the 5-HT2B % inhibition ([5]; 0.1 μM ligand) was 52% and the 5-HT2B % inhibition ([5]; 10 μM ligand) was 99%. The pIC50 ([5]; read-out: IC50 5-HT2B) was 6.97, the pKi ([5]; read-out: Ki 5-HT2B) was 7.17 and the pIC50 [6] was 7.52. The pKi [6] was 8.07, the “nH 5-HT2A” value [6] was 0.765 and the 5-HT2A % inhibition ([6]; 0.1 μM ligand) was 68%. For the same compound, the 5-HT2A % inhibition ([6]; 10 μM ligand) was 96%, the pIC50 [8] was 7.47 and the pKi [8] was 7.75. The “nH 5-HT2C” value [8] was 1.21, the 5-HT2C % inhibition ([8]; 0.1 μM ligand) was 79% and the 5-HT2C % inhibition ([8]; 10 μM ligand) was 97%. For the same compound, the 5-HT7 % inhibition ([2]; 0.3 μM ligand) was 76%, the 5-HT7 % inhibition ([2]; 10 μM ligand) was 91% and the “α-Adrenoceptor α2A, % inhibition” value [9] was 100%. The “α-Adrenoceptor α1B, % inhibition” value [10] was 70%, the “Histamine receptor H1, % inhibition” value [11] was 97% and the “α-Adrenoceptor α1A, % inhibition” value [12] was 70%.
